Where two headings read alike, the source gives them in different places.
Legend:
[1] = system: ReNcell wt (non-transduced proliferating ReNcells); assay: cells; assay type: cell-based; conditions: Homo sapiens; 96 h GCV exposure; read-out: EC50 of GCV, killing of non-transduced proliferating ReNcells
Procedure: Cells were exposed to 100 µM of the respective nucleoside for 48 h. DNA damage was monitored using γ-H2A.X marker in yellow and nuclei were counterstained with Hoechst. The white box in the first column indicates the area of the zoom for the hESC colonies.
Plates were washed twice with DMEM-F12 (Gibco, ThermoFisher; Geneva, Switzerland), then coated with Matrigel (Corning, Lonay, Switzerland) 1/100 in DMEM-F12 and incubate 2 h at 37°. Cells were detached using Accutase and seeded at 2000 cells/well in serum-free culture medium containing 10 µM of ROCK inhibitor. At 24 h, the cell culture was continued without ROCK inhibitor. […] Drugs were prepared by serial dilution (two-fold) in 100% DMSO. At 48 h after seeding, cells were exposed to antiviral drugs for 96 h. For EC50 assays, the medium was changed daily for 4 days, then cell viability was assessed using an ATP-based assay. EC50 values for each construct were calculated using a four parameters equation (GraphPad, Prism8, San Diego, CA, USA). The same procedure was used for the cell death kinetic determinations except the treatment duration. Luminescence was measured using Spectra L384/L96 (0.2 sec exposure, Molecular devices, Biberach an der Riß, Germany).

[2] = system: hESC (HS420) expressing Ki67-SR39; assay: ATP-based cell survival assay, GCV-induced cell death; set-up: species or system human; conditions: for EC50: Homo sapiens
Procedure: Our first generation of suicide gene was engineered with the wild type thymidine kinase (wt-TK). To improve the suicide gene efficacy, we investigated different TK variants; wt-TK, 30-GMK, SR39, SR39h, and SR39h D116E variants. These sequences were chosen based on the analysis of the literature investigating HSV1-TK variants, as well as a gain of function mutation in the CMV UL-97 kinase. The efficacy of each variants was determined as percentage of cell survival following prodrug treatment compared to non-treated hESC. For this purpose, we used the ATP-based assay, which measures cellular ATP content and thereby provides a reliable estimate of the number of healthy cells. The 50% effective concentration (EC50) was defined as the drug concentration required to reduce the percentage of cell survival by 50%. […] In order to optimize our system, we first replaced the wt-TK by the 30-GMK variant, which is a fusion between the 30 TK variant and guanylate kinase (GMK). Note that GMK is mediating the second phosphorylation step of antiviral nucleoside analogs. […] Microbial codon usage might not yield optimal results in human cells. We therefore adapted the SR39 sequence to a typical human codon usage. For this purpose, 218 of the total 376 codons of the SR39 sequence were changed (for details see Supplementary Sequence 1 and Method section). We will refer to this sequence as the SR39h variant.
Figure 1 EC50 of ganciclovir (GCV) in cell expressing different thymidine kinase (TK) variants. […] Number of surviving cells was monitored using bioluminescent ATP-based assay. […]
Cell culture plate (96 wells plate Corning #3907, Corning, Lonay, Switzerland) were pre-coated with 60 μL per well of Poly-L-ornithine solution (Sigma, Merk, Eysins, Switzerland) at 37 °C for 30 min. […] For EC50 assays, the medium was changed daily for 4 days, then cell viability was assessed using an ATP-based assay. EC50 values for each construct were calculated using a four parameters equation (GraphPad, Prism8, San Diego, CA, USA). […]

[3] = system: sister chromatid exchange; set-up: method as in PMID 10719044; conditions: at concentrations far below those impairing the proliferative activity; cited from earlier work
host cell DNA = conditions: cited from earlier work

Nc1nc(O)c2ncn(COC(CO)CO)c2n1 [GCV, ganciclovir]
EC50 [1]: 12000 nM
Fold increase compare to wt-TK (fold reduction in EC50) ([2]; GCV EC50 ratio, Ki67-SR39 vs wt-TK): 50 fold
EC50 ([2]; 96 h, read-out: EC50 of GCV (cell survival)): 2 nM
EC50 ([2]; 96 h GCV exposure, Ki67-SR39, read-out: GCV EC50): 1.9 nM
Induction of sister chromatid exchange [3]: potent inducer of sister chromatid exchange
Fragmentation of host cell DNA (host cell DNA): induce fragmentation of host cell DNA

Source: PMC8834506, “Optimization of Thymidine Kinase-Based Safety Switch for Neural Cell Therapy” (Cells, 2022)
